Patent publication US7402559B2, “Composition and method of treatment for urogenital conditions” (MSH Pharma, Incorporated, priority 1999, dated 2008)
Bridge positions count the residues as written; N and C are the ends. Ends that are not written are not given here. I, II: the chains in the order shown.

Legend:
C. albicans [1] = experiment: C. albicans colony formation (CFU viability); assay type: cell-based, Candida albicans; conditions: FIG. 3; 10^−12 to 10^−4 M; p<0.01 vs. control
Method: Clinical isolates of C. albicans were obtained from the collection of the Department of Microbiology, Ospedale Maggiore di Milano. Cultures of C. albicans were maintained on Sabouraud's agar slants and periodically transferred to Sabouraud's agar plates and incubated for 48 hours at 28° C. To prepare stationary growth-phase yeast, a colony was taken from the agar plate, transferred into 30 ml of Sabouraud-dextrose broth, and incubated for 72 hours at 32° C. Cells were centrifuged at 1000× g for ten minutes, and the pellet was washed twice with distilled water. Cells were counted and suspended in Hank's balanced salt solution (“HBSS”) to the desired concentration.
Cells were then washed in cold distilled water and diluted with HBSS to a concentration of 100 organisms/ml. One-milliliter aliquots were then dispensed on blood agar plates and incubated for 48 hours at 37° C. The organism's viability was estimated from the number of colonies formed.
[…] The effects of forskolin and ddAdo on the ability of C. albicans to form colonies were determined according to the procedures described in Example II.

C. albicans [2] = experiment: Candida CFU, CKPV dimer versus KPV: C. albicans; assay type: cell-based; conditions: FIG. 17; same molarity (10^−4 M)
Method: (§1) C. albicans, C. glabrata. and C. krusei (clinical isolates) were obtained from the collection of the laboratory of Microbiology, Ospedale Maggiore di Milano. Six different isolates for each yeast strain were used. Candida Sp. cells were maintained on Sabouraud's agar slants and periodically transferred to Sabouraud's agar plates and incubated for 48 h at 28° C. To prepare stationary growth phase yeast, a colony was taken from the agar plates and transferred into 5 ml Sabouraud-dextrose broth and incubated for 48 h at 32° C. Cells were centrifuged at 1,000× g for 10 minutes and the pellet was washed twice with distilled water. Cells were counted and suspended in distilled water to obtain 10^7 yeast cells/ml. Viability, determined by the exclusion of 0.01% methylene blue, remained >98%.
(§2) Control tubes received 100 μl of distilled water. All the tests were run in triplicate. After 2 h incubation at 37° C., yeast suspension from each vial was diluted with distilled water to obtain approximately 100 organisms/ml. One milliliter aliquots from each tube were dispensed on blood agar plates and incubated for 48 h at 37° C. to count CFUs. Organism viability was estimated from the number of CFUs in each plate. Only experiments in which CFUs in control plates were between 80 and 120 with a variability in counts less than 10% were used to evaluate effects of the peptides. […]

C. krusei = experiment: Candida CFU, CKPV dimer versus KPV: C. krusei; assay type: cell-based; conditions: FIG. 18; same molarity (10^−4 M)
Method: as §1, §2

C. glabrata = experiment: Candida CFU, CKPV dimer versus KPV: C. glabrata; assay type: cell-based; conditions: FIG. 19; same molarity (10^−4 M)
Method: as §1, §2

S. aureus (ATCC 29213) = experiment: S. aureus colony formation (viability); assay type: cell-based, Staphylococcus aureus; conditions: FIG. 1; significant at peptide concentrations of 10^−12 to 10^−4 M; 2 h at 37° C.
Method: Cultures of S. aureus (ATCC 29213) were obtained from the collection of the Department of Microbiology, Ospedale Maggiore di Milano. […] Cells were then washed in cold distilled water and diluted with HBSS to a concentration of 100 organisms/ml. One-milliliter aliquots were dispensed on blood agar plates and incubated for 24 hours at 37° C. Viability of the microorganisms was estimated from the colonies formed. In another set of experiments, 500 units of urokinase, a S. aureus growth enhancer, were also incubated with the bacteria (10^5/100 ml ) for four hours at 37° C. in a shaking water bath together with the peptides.

## VPKC-s-s-CKPV (disulfide I:1-II:1; not fully specified (N-terminus, C-terminus)) [CKPV dimer]
C. albicans [1]
  ability of C albicans to form colonies: greatly reduced
C. albicans [2]
  effectiveness relative to KPV monomer, C. albicans: more than twice as effective
C. krusei
  effectiveness relative to KPV monomer, C. krusei: more than twice as effective
C. glabrata
  effectiveness relative to KPV monomer, C. glabrata: more than twice as effective
S. aureus (ATCC 29213)
  S. aureus colony formation: inhibited
